From US11964943B2, “3,5-diarylidenyl-n-substituted-piperid-4-one-derived inhibitors of Stat3 pathway activity and uses thereof” (priority 2017, dated 2024)
Entries after “also recorded” stand apart in the source; their conditions may differ.

Experiments:
[1] = tested on: survivin, Bcl-2, Bcl-xL, MMP-9, cleaved PARP, cleaved caspase-3; experiment: Immunoblotting of Stat3 downstream targets and apoptosis markers; format: cell-based
Procedure: (§1) Whole cell lysates were prepared by incubation of harvested, trypsinised cells with CelLytic™ lysis buffer (Sigma-Aldrich) supplemented with 1× protease and 1× phosphatase inhibitors (Roche). Protein quantification was carried out using a protein assay kit (Bio-Rad). 40 μg of the lysates were denatured by heating for 5 min at 95° C. in sample buffer containing 100 mM Tris-Cl (pH 6.8), 4% SDS, 10% 2-mercaptoethanol, 20% glycerol, and 0.02% bromophenol blue. Precision Plus Protein Dual colour standards (Bio-Rad) were used as a molecular weight reference. For the detection of STAT3, pSTAT3, α/β tubulin, cleaved PARP, Bcl-2, Bcl-xL, FANCD2, BRCA1, EME1 and MUS81, proteins were separated on a NuPAGE 7% Tris-acetate gel (Life Technologies) and subsequently transferred to polyvinylidene difluoride membranes (Immobilon®-P transfer membrane; Millipore). […] Membranes were blocked for 1 h at ambient temperature in a blocking buffer containing 5% w/v Bovine Serum Albumin (BSA; Sigma-Aldrich) in 1×TBS, 0.1% Tween-20. All proteins were identified by incubation in a 1:1000 dilution of the respective polyclonal antibodies (Cell signaling) in blocking buffer overnight at 4° C. and subsequent incubation for 1 h with an anti-rabbit or anti-mouse secondary antibody (Cell signalling) at a dilution of 1:1000. The α/β tubulin (1:2000; Cell Signaling) and the anti-phospho-histone H2AX Antibody (1:500; Millipore) were used in the denoted dilutions. Antibody binding was visualized by enhanced chemiluminescence (Amersham) on autoradiography film (Kodak-X-Omat). Alternatively Images were captured by the GelDoc-It Imaging System Fusion Fx7 (Vilber Lourmat, Germany).
as §1, with “Immunoblotting. Whole” for “Whole”, “CelLytic™ M” for “CelLytic™”, “pSTAT3, a/0” for “pSTAT3, α/β”, “in 1×TBS” for “in 1×TBS,”, “(Cell signalling)” for “(Cell signaling)”

DU145 cells = experiment: Colony formation assay for radiosensitization; format: cell-based
Procedure: The X-Ray radiation facility provided an AGO HS MP-1 X-ray machine with a Varian ND1-321 tube used to produce X rays at a dose rate of 1 Gy/min.
Stock cultures were trypsinised and 2.5×10^4 cells were seeded into 6-well plates and incubated at 37° C. for 24-48 hours. When cells reached […] confluency, they were treated with IE-8 (0, 0.8, 1, and 1.2 μM) for 18 hours. After drug treatment, cells were harvested by trypsinisation and re-seeded. […] Plates were then incubated for 14 days at 37° C. with 5% CO2. After this incubation, plates were washed with tap water and fixed. Colonies were stained for 30 minutes at room temperature with 1% (w/v) crystal violet (Sigma-Aldrich) in 10% ethanol, and subsequently dried overnight at room temperature. Colonies consisting of at least 50 cells were counted for each treatment. The number of colonies in unirradiated wells was used to determine the plating efficiency (number of colonies/number of cells seeded). The following formula was used to calculate survival fraction: […]

pStat3 = experiment: Immunohistochemistry of pStat3 in xenograft tissue sections; format: in vivo, mice; conditions: A549, A431, DU145 and HCT116-oxaliplatin resistant xenografts, single dose 30 mg/kg, 24 h
Procedure: Mice were treated as described in the survival experiments but were sacrificed 24 h post administration of the compound or vehicle, intraperitoneally.

[2] = A2780-cisplatin resistant cells

**Q.** For `COc1cc(/C=C2\CN(c3ccccc3)C/C(=C\c3cc(OC)c(OC)c(OC)c3)C2=O)cc(OC)c1OC` [IE-8, 3,5-Di(3,4,5-trimethoxybenzylidene)-1-phenylpiperidin-4-one], which “induction of apoptosis (cleaved PARP, cleaved caspase 3, Annexin-V/PI)” value [1, 2] is on record?
**A.** The value was “induced apoptosis”.

**Q.** What about the “inhibition of downstream Stat3 targets Bcl-xL and survivin” value [1, 2] of the same compound?
**A.** The value was “capable of inhibiting”.

**Q.** What about the “downregulation of MMP-9” value ([1]; A2780-cisplatin resistant cells, IL-6 stimulated) of the same compound?
**A.** The value was “downregulates the matrix metalloproteinase MMP-9”.

**Q.** And the “induction of apoptosis (cleaved PARP)” value ([1]; DU145 and A549 cells, 18 h)?
**A.** The value was “induced cell death via apoptosis”.

**Q.** And the “downregulation of survivin and Bcl-2” value ([1]; DU145 cells, 18 h)?
**A.** Its value is “downregulated the transcription of key Stat3 target genes”.

**Q.** What about the “colony formation following irradiation” value (DU145 cells; 18 h pretreatment) of the same compound?
**A.** The value was “dose-dependent decrease in colony formation”.

**Q.** What about the Survival fraction (DU145 cells; IE-8 0.8 μM 18 h pretreatment, 0 Gy) of the same compound?
**A.** Its Survival fraction is 1.000.

**Q.** What about the Survival fraction (DU145 cells; IE-8 0.8 μM 18 h pretreatment, 2 Gy) of the same compound?
**A.** Its Survival fraction is 0.451.

**Q.** And the Survival fraction (DU145 cells; IE-8 0.8 μM 18 h pretreatment, 4 Gy)?
**A.** The Survival fraction was 0.147.

**Q.** And the Survival fraction (DU145 cells; IE-8 0.8 μM 18 h pretreatment, 6 Gy)?
**A.** The Survival fraction was 0.047.

**Q.** What about the Survival fraction (DU145 cells; IE-8 0.8 μM 18 h pretreatment, 8 Gy) of the same compound?
**A.** Its Survival fraction is 0.013.

**Q.** And the Survival fraction (DU145 cells; IE-8 1 μM 18 h pretreatment, 0 Gy)?
**A.** The Survival fraction was 1.000.

**Q.** And the Survival fraction (DU145 cells; IE-8 1 μM 18 h pretreatment, 2 Gy)?
**A.** Its Survival fraction is 0.440.

**Q.** What about the Survival fraction (DU145 cells; IE-8 1 μM 18 h pretreatment, 4 Gy) of the same compound?
**A.** The Survival fraction was 0.134.

**Q.** What about the Survival fraction (DU145 cells; IE-8 1 μM 18 h pretreatment, 6 Gy) of the same compound?
**A.** Its Survival fraction is 0.026.

**Q.** And the Survival fraction (DU145 cells; IE-8 1 μM 18 h pretreatment, 8 Gy)?
**A.** Its Survival fraction is 0.006.

**Q.** What about the Survival fraction (DU145 cells; IE-8 1.2 μM 18 h pretreatment, 0 Gy) of the same compound?
**A.** The Survival fraction was 1.000.

**Q.** What about the Survival fraction (DU145 cells; IE-8 1.2 μM 18 h pretreatment, 2 Gy) of the same compound?
**A.** The Survival fraction was 0.349.

**Q.** What about the Survival fraction (DU145 cells; IE-8 1.2 μM 18 h pretreatment, 4 Gy) of the same compound?
**A.** The Survival fraction was 0.077.

**Q.** And the Survival fraction (DU145 cells; IE-8 1.2 μM 18 h pretreatment, 6 Gy)?
**A.** The Survival fraction was 0.014.

**Q.** What about the Survival fraction (DU145 cells; IE-8 1.2 μM 18 h pretreatment, 8 Gy) of the same compound?
**A.** The Survival fraction was 0.002.

**Q.** What about the “pStat3 levels in xenograft tissue sections” value (pStat3) of the same compound?
**A.** The value was “marked and in many instances significant downregulation; also recorded: downregulation of the pStat3 levels in vivo, was achieved”.
